These results are taken from ChEMBL document CHEMBL2424622, “Development of amino-pyrimidine inhibitors of c-Jun N-terminal kinase (JNK): kinase profiling guided optimization of a 1,2,3-benzotriazole lead” (Bioorg Med Chem Lett, 2013).

The target in experiment [1] is T1, Serine/threonine-protein kinase 17A (Homo sapiens) (UniProt Q9UEE5).
T1 sequence (whole entry): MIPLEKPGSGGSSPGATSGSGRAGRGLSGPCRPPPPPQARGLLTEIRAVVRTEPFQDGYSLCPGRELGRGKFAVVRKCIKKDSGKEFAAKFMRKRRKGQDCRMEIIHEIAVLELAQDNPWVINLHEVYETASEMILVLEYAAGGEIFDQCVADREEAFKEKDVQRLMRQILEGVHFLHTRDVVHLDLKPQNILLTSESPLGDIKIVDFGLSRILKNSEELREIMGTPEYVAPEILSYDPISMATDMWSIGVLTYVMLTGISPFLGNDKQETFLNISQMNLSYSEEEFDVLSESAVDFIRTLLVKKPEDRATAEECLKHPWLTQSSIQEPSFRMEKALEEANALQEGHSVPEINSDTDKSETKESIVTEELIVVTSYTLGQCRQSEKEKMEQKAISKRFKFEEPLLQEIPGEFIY
Description: Competitive binding affinity to DRAK1 (unknown origin) at 10 uM in presence of ATP relative to control.

The subject of experiment [2] is T2, Receptor-type tyrosine-protein kinase FLT3 (Homo sapiens), P36888 [D835H].
T2 sequence (whole entry): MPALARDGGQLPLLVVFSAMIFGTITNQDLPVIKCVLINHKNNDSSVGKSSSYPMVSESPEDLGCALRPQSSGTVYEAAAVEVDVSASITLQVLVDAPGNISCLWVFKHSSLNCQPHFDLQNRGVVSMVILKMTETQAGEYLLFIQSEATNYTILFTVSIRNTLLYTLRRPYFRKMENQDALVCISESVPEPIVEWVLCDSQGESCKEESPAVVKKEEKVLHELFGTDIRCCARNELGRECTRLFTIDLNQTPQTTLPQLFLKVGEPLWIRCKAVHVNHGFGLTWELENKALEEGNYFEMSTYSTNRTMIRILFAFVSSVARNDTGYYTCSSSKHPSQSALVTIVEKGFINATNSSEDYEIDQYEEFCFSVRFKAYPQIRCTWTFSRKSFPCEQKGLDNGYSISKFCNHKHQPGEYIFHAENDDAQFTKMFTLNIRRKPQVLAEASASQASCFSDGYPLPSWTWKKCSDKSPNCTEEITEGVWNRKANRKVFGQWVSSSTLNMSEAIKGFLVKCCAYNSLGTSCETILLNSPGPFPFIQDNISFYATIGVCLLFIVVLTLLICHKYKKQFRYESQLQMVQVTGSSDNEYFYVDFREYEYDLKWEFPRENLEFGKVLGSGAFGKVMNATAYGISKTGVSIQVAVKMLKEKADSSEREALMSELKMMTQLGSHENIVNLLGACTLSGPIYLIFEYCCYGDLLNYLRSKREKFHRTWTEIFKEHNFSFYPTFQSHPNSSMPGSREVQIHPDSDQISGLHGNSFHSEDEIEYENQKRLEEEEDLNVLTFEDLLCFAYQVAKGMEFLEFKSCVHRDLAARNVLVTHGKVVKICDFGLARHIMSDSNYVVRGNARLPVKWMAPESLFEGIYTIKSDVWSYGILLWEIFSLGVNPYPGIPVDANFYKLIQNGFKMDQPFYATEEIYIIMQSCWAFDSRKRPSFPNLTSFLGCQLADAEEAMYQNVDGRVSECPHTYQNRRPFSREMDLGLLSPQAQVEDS
Description: Competitive binding affinity to FLT3 D835H mutant (unknown origin) at 10 uM in presence of ATP relative to control.

Experiment [3] deals with T3, Tyrosine-protein kinase ZAP-70 (Homo sapiens) (UniProt P43403).
T3 sequence (whole entry): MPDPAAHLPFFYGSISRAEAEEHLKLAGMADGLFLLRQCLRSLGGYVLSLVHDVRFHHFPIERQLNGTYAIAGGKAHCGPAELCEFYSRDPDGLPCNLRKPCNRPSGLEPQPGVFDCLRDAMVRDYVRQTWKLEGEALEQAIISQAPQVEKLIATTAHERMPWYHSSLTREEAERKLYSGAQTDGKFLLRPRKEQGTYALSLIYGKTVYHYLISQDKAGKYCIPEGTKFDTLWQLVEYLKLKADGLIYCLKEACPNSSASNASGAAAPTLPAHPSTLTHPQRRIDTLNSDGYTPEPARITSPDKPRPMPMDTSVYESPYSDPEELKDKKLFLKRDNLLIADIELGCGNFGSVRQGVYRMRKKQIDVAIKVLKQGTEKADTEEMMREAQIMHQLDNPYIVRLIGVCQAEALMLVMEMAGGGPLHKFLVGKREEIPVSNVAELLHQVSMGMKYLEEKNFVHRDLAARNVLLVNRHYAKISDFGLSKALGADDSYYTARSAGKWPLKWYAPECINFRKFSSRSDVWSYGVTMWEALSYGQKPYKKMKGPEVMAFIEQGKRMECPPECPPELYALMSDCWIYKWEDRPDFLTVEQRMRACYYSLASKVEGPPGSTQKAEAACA
Description: Competitive binding affinity to ZAP70 (unknown origin) at 10 uM in presence of ATP relative to control.

The target in experiment [4] is T4, Discoidin domain-containing receptor 2 (Homo sapiens) (UniProt Q16832).
T4 sequence (whole entry): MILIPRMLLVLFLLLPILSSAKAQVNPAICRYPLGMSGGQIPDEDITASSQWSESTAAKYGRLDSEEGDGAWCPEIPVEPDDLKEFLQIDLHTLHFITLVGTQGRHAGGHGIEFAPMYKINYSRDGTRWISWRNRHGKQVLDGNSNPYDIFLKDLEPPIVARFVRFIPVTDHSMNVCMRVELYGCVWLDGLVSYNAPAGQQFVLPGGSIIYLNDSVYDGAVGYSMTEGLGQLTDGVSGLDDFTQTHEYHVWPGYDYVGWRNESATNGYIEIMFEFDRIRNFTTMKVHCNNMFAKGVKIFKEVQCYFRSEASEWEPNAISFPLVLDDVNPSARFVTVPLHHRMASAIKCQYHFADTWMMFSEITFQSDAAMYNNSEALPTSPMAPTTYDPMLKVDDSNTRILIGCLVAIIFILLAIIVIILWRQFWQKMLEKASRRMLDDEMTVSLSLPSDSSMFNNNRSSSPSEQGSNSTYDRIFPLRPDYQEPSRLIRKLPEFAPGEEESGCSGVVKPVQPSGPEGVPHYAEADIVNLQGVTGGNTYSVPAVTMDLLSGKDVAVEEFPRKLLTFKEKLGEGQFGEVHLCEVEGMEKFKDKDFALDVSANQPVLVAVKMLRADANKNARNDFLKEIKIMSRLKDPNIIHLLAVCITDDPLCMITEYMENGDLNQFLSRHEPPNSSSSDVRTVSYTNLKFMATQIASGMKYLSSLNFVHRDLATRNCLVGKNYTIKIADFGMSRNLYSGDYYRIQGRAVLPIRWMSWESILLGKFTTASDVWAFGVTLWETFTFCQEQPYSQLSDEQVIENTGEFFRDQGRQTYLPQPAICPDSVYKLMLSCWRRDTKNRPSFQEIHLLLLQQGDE
The experiment can be described thus: Competitive binding affinity to DDR2 (unknown origin) at 10 uM in presence of ATP relative to control.

For the compound `CS(=O)(=O)CCCOc1cccc2c1ccn2-c1ccnc(N[C@H]2CC[C@H](C(=O)N3CCC(O)CC3)CC2)n1`, the inhibition in experiment [1] was over 85%.
Turning to `O[C@H]1CC[C@H](Nc2nccc(-n3ccc4ccccc43)n2)CC1`, the inhibition in experiment [2] was under 50%; in experiment [3], under 50%; in experiment [1] it was 98%; in experiment [4], under 50%.
Turning to `O[C@H]1CC[C@H](Nc2nccc(-n3ncc4ccccc43)n2)CC1`, the inhibition in experiment [2] is 100%; in experiment [3], under 50%; in experiment [1], 99%; in experiment [4], under 50%.
With `O[C@H]1CC[C@H](Nc2nccc(-c3n[nH]c4ccccc34)n2)CC1`, the inhibition in experiment [2] is 100%; in experiment [3], under 50%.
On to `O[C@H]1CC[C@H](Nc2nccc(-n3nnc4ccccc43)n2)CC1`, for which the inhibition in experiment [2] is 99%; in experiment [3], under 50%; in experiment [1], 100%; in experiment [4], under 50%.
